Among the data in US20090118261A1, “QUINAZOLINONE DERIVATIVES AND THEIR USE AS B-RAF INHIBITORS” (ASTRAZENECA AB, priority 2004, published 2009) are IC50 values, retold here.

Structures are written as SMILES.

T1 sequence (P15056 whole entry): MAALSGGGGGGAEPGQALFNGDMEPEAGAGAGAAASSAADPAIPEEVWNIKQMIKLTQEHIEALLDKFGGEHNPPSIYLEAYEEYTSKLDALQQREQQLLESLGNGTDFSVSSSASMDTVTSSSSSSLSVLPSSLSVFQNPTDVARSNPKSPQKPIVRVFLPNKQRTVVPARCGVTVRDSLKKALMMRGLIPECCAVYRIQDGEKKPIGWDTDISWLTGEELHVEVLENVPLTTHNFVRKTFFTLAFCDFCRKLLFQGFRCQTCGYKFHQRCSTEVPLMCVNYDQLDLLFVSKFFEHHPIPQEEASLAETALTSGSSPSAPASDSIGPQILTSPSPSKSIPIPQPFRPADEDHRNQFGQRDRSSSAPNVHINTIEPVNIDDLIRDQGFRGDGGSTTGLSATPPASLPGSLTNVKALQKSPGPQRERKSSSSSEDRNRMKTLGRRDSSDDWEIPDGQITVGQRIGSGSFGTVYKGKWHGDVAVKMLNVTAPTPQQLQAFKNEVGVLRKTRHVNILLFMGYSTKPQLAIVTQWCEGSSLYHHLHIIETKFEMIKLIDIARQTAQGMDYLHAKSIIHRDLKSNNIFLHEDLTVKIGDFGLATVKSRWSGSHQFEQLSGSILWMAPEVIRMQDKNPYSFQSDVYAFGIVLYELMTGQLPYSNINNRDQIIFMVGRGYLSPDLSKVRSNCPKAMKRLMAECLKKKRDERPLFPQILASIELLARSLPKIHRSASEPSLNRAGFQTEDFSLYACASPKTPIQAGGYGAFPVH

The experiment addresses T1, human recombinant, purified wild type His-B-Raf protein kinase (Homo sapiens, UniProt P15056).
T1 construct: His
Description: B-Raf In Vitro ELISA Assay. The conditions noted are these: phosphorylation of MEK1; 2.5 nM B-Raf, 0.15 μM MEK1, 10 μM ATP. In kind it is biochemical. The method, then: B-Raf In Vitro ELISA Assay
Activity of human recombinant, purified wild type His-B-Raf protein kinase was determined in vitro using an enzyme-linked immunosorbent assay (ELISA) assay format, which measures phosphorylation of the B-Raf substrate, human recombinant, purified His-derived (detagged) MEK1. The reaction utilized 2.5 nM B-Raf, 0.15 μM MEK1 and 10 μM adenosine triphosphate (ATP) in 40 mM N-(2-hydroxyethyl)piperazine-N′-(2-ethanesulfonic acid hemisodium salt (HEPES), 5 mM 1,4-dithio-DL-threitol (DTT), 10 mM MgCl2, 1 mM ethylenediaminetetraacetic acid (EDTA) and 0.2M NaCl (1×HEPES buffer), with or without compound at various concentrations, in a total reaction volume of 25 μl in 384 well plates. B-Raf and compound were preincubated in 1×HEPES buffer for 1 hour at 25° C. Reactions were initiated with addition of MEK1 and ATP in 1×HEPES buffer and incubated at 25° C. for 50 minutes and reactions stopped by addition of 10 μl 175 mM EDTA (final concentration 50 mM) in 1×HEPES buffer. 5 μl of the assay mix was then diluted 1:20 into 50 mM EDTA in 1×HEPES buffer, transferred to 384 well black high protein binding plates and incubated for 12 h at 4° C. Plates were washed in tris buffered saline containing 0.1% Tween20 (TBST), blocked with 50 μl Superblock (Pierce) for 1 hour at 25° C., washed in TBST, incubated with 50 μl rabbit polyclonal anti-phospho-MEK antibody (Cell Signaling) diluted 1:1000 in TBS for 2 h at 25° C., washed with TBST, incubated with 50 μl goat anti-rabbit horseradish peroxidase-linked antibody (Cell Signaling) diluted 1:2000 in TBS for 1 hour at 25° C. and washed with TBST. 50 μl of fluorogenic peroxidase substrate (Quantablu—Pierce) was added and following incubation for 45-60 mins, 50 μl QuantabluSTOP (Pierce) was added. Blue fluorescent product was detected at excitation 325 nm and emission 420 nm using a TECAN Ultra plate reader. Data was graphed and IC50s calculated using Excel Fit (Microsoft).
For `Cc1nc2ccc(Nc3cc(NC(=O)c4cccc(C(C)(C)C#N)c4)ccc3C)cc2c(=O)[nH]1` [Example 4, 3-(1-Cyano-1-methylethyl)-N-{4-methyl-3-[(2-methyl-4-oxo-3,4-dihydroquinazolin-6-yl)amino]phenyl}-benzamide], the half-maximal inhibitory concentration (IC50) came out at 186 nM.

Regarding `Cc1ccc(NC(=O)c2cccc(C(C)(C)C#N)c2)cc1Nc1ccc2ncn(CCCN3CCOCC3)c(=O)c2c1` [Example 7, 3-(1-Cyano-1-methylethyl)-N-(4-methyl-3-{[3-(3-morpholin-4-ylpropyl)-4-oxo-3,4-dihydroquinazolin-6-yl]amino}phenyl)-benzamide], the IC50 amounted to 347 nM.

For `Cc1ccc(NC(=O)c2cccc(C(C)(C)C#N)c2)cc1N(C)c1ccc2ncn(C)c(=O)c2c1` [Example 33, 3-(Cyano-dimethyl-methyl)-N-{4-methyl-3-[methyl-(3-methyl-4-oxo-3,4-dihydro-quinazolin-6-yl)-amino]-phenyl}-beazamide], the IC50 was 1930 nM.
